Measurements taken from patent US20240207355A1, “PHARMACEUTICAL COMPOSITION FOR ENHANCING ANTICANCER EFFECT OF ANTICANCER DRUG” (L-BASE CO., LTD., priority 2021, published 2024).
Read-outs that look alike come from different tables or passages of the source. Ends that are not written are not given here. Peptide text beside a SMILES is read from it. * marks the point of attachment. Benzoyl(3-Ph) = O=C(c1cccc(-c2ccccc2)c1)*; Benzoyl(4-OMe) = COc1ccc(C(=O)*)cc1

Key:
[1] = tested on: lung cancer cell line H1975; assay: MTT assay, cell viability inhibition in lung cancer cell line H1975; settings: for cell viability decrease compared to the control group: human; for cytotoxicity at 0.5 µM: Osimertinib 0.5 μM alone
Description: (§1) Specifically, cells were seeded at 2×10^3/100 μl per well on a 96-well plate, and after culturing for 24 hours, the compound according to the present invention was administered; 4 hours later, anticancer drugs were treated to each cancer cell. The treatment concentration and treatment time of the compound and anticancer drug are specifically described in the embodiment. After completing the treatment of the compound and anticancer drug, CellTiter-96® reagent (Promega Co., USA) was reacted at 5% CO2, 37° C. after adding 10 μl per well. After 3 hours, absorbance was measured at 490 nm using a spectrophotometer (SPECTROstar^Nano, BMG).
H1975 was treated with 3-PhPh-[…] at a concentration of 25 μM and after 4 hours, Osimertinib was administered at a concentration of 1.25 μM, either alone or in combination, and the cell viability inhibitory effects were compared 68 hours later.
Subsequently, H1975 was treated with 4-PhPh-[…] at a concentration of 2 μM, and at the same time, Osimertinib was administered at a concentration of 1 μM, either alone or in combination, and the cell viability inhibitory effects were compared 48 hours later.
Next. H1975 was treated with Ac-[…] at a concentration of 10 μM, and at the same time, Osimertinib was administered at a concentration of 0.5 μM, either alone or in combination, and the cell viability inhibitory effects were compared 48 hours later.
Furthermore, H1975 was treated with 4-MeOPh-[…] at a concentration of 10 μM and simultaneously, a targeted anticancer drug, Osimertinib, was administered either alone or in combination at a concentration of 0.5 μM, and after 48 hours, the effects of inhibiting cell viability were compared.
Similarly, the lung cancer cell line H1975 was treated with 4-PhPh-[…] at a concentration of 2 μM according to the MTT assay method described in the “Experimental Materials and Methods”. At the same time, Alimta, a chemotherapeutic agent, was administered either alone or in combination at a concentration of 0.2 μM, and after 48 hours, the effects of inhibiting cell viability were compared.
The anticancer effect of the triple co-administration was compared with the 3-PhPh-[…] single treatment group, and the Osimertinib and Alimta co-treatment group.

H1975/OR = assay: MTT assay, cell viability inhibition in lung cancer cell line H1975/OR; settings: for cell viability decrease compared to the control group: human, 5 μM
Description: as §1
Additionally, H1975/OR was treated with 3-PhPh-[…] at a concentration of 5 μM, and after 4 hours, the chemotherapeutic agent Alimta was administered either alone or in combination at a concentration of 0.1 μM, and after 72 hours, the effects of inhibiting cell viability were compared.
Subsequently, H1975/OR was treated with 3-PhPh-[…] at a concentration of 5 μM, and after 4 hours, the targeted anticancer drug Osimertinib was administered either alone or in combination at a concentration of 2.5 μM, and after 68 hours, the effects of inhibiting cell viability were compared.

[2] = tested on: lung cancer cell line H820; assay: MTT assay, cell viability inhibition in lung cancer cell line H820; type: cell-based
Description: First, [sequence] was administered at a concentration of 10 μM to H820, and then, the targeted anticancer drug Osimertinib was administered either alone or in combination at a concentration of 5 μM, and the cell viability inhibitory effect was compared 48 hours later.

[3] = tested on: non-small cell lung cancer cell line PC9/OR; assay: MTT assay, cell viability inhibition in non-small cell lung cancer cell line PC9/OR; type: cell-based; settings: 68 h
[4] = tested on: breast cancer cell line HCC1937; assay: MTT assay, cell viability inhibition in breast cancer cell line HCC1937; type: cell-based
Description: After 24 hours, the cell viability inhibitory effect was compared.
After 48 hours, the cell viability inhibitory effect was compared.
After 72 hours, the cell viability inhibitory effect was compared.

[5] = tested on: H820 lung cancer cell line; assay: Heterotransplant lung cancer animal model (H820), tumor growth; type: in vivo; settings: H820 nude mice; 3-PhPh-AQTGTGKT 10 mpk alone, 7 times at a two-day interval for 14 days; FIG. 6A
Description: The test substances were administered intravenously and orally 7 times at 2-day intervals.
Nude mice transplanted with H820 lung cancer cell line, an animal model of lung cancer described in the “Experimental Materials and Methods,” was treated 7 times at a two-day interval for 14 days with 3-PhPh-[…] at a dose of 10 mpk, and Osimertinib was orally administered daily at 2.5 mpk. Then, the growth of the tumor was compared.

p-Beclin1S15 = assay: Immunohistochemical staining of p-Beclin1S15 in H820 tumor tissue; type: in vivo; settings: H820 nude mice tumor; 3-PhPh-AQTGTGKT 10 mpk alone, 7 times at 2-day intervals; IHC; FIG. 7
Description: Tissue embedded in paraffin was cut to a thickness of 4 μm and affixed to a slide, then thoroughly dried and the IHC experiment procedure was performed. Each slide was deparaffinized, and endogenous enzymes were removed using citrate buffer (pH 6.0). Then, p-Beclin1S15 antibody was diluted to 1:100 and treated for 15 hours at 4° C. After washing 4 times with TBST wash buffer, rabbit HRP was treated for secondary antibody reaction and reacted at room temperature for 30 minutes. After the substrate for the antibody reaction was added, when the color appeared, the slide was washed and sealed, and after slide scanning, the result was read.
Nude mice transplanted with H820 lung cancer cell line, an animal model of lung cancer described in the “Experimental Materials and Methods,” was treated 7 times at 2-day intervals for 14 days with 3-PhPh-[…] at a dose of 10 mpk. Osimertinib was orally administered daily at 2.5 mpk, followed by tumor sampling and p-Beclin1S15 immunostaining.

H1975 cell line = settings: H1975 Balb/C nude mice
Description: H1975 cells were mixed with matrigel in a 1:1 ratio at a concentration of 5×10^6 cells/mouse, and each was subcutaneously inoculated at 200 μl into the flank of the mouse once. After the inoculation, it was confirmed that the volume of the formed tumor reached 70˜130 mm^3, and then random grouping was carried out. After the grouping, Osimertinib was administered orally every day, and after the growth of the tumor was inhibited, the point of re-growth was identified and the co-administration with the test substance was started. The test substances were administered intravenously 7 times at 2-day intervals.
After inoculating the H1975 cell line in 4-week-old female Balb/C nude mice, the presence and growth of the tumor were observed and the short and long axes of the tumor were measured to calculate the volume. When the volume of the tumor reached 70-120 mm^3, the groups were randomly separated and PBS, the negative control group, and Osimertinib at 5 mpk were orally administered daily.
The first day of administration was set as day 1, and the volume of the tumor was measured twice a week.
Accordingly, the individuals who orally administered 5 mpk Osimertinib every day for 28 days were further divided into two groups and observed until the 32nd day of administration.

C[C@H](NC(=O)c1cccc(-c2ccccc2)c1)C(=O)N[C@@H](CCC(N)=O)C(=O)N[C@H](C(=O)NCC(=O)N[C@H](C(=O)NCC(=O)N[C@@H](CCCCN)C(=O)N[C@H](C(=O)O)[C@@H](C)O)[C@@H](C)O)[C@@H](C)O ({Benzoyl(3-Ph)}-AQTGTGKT-OH)
cell viability decrease compared to the control group ([1]; 68 h, 25 μM): about 10%
cell viability decrease compared to the control group (H1975/OR; 68 h): about 17%
cell viability decrease compared to the control group (H1975/OR; 72 h): about 6.5%
cell viability decrease compared to the control group ([2]; human, 72 h, 40 μM): about 8%
cell viability decrease compared to the control group ([3]; human, 25 μM): approximately 0.2%
decrease in cell viability compared to the control group ([4]; human, 72 h, 10 μM): about 3%
tumor viability reduction compared to the control group (PBS administered group) [5]: about 38%
expression of p-Beclin1S15 compared to the group receiving Osimertinib alone (p-Beclin1S15): reduced

O=C(c1cc(Cc2n[nH]c(=O)c3ccccc23)ccc1F)N1CCN(C(=O)C2CC2)CC1 [Olaparib, reference compound]
cytotoxicity at 2.5 µM ([4]; Homo sapiens, HCC1937, 24 h, read-out: decrease in cell viability compared to the control group): ~1.2%

AQTGTGKT [alanine-glutamine-threonine-glycine-threonine-glycine-lysine-threonine]
cell viability decrease compared to the control group ([2]; H820, AQTGTGKT 10 μM alone, 48 hours, FIG. 2A): about 15%
decrease in cell viability compared to the control group ([4]; HCC1937, AQTGTGKT 5 μM alone, 24 hours, FIG. 4A): no decrease in cell viability

C=CC(=O)Nc1cc(Nc2nccc(-c3cn(C)c4ccccc34)n2)c(OC)cc1N(C)CCN(C)C [Osimertinib]
cytotoxicity at 0.5 µM ([1]; Homo sapiens, NCI-H1975, 48 h, read-out: cell viability decrease compared to the control group, H1975, 48 hours, FIG. 1C): ~12%
cytotoxicity at 0.5 µM ([1]; Homo sapiens, NCI-H1975, 48 h, read-out: cell viability decrease compared to the control group, H1975, 48 hours, FIG. 1D): ~21%
cytotoxicity at 1 µM ([1]; Homo sapiens, NCI-H1975, 48 h, read-out: cell viability decrease compared to the control group, H1975, Osimertinib 1 μM alone, 48 hours, FIG. 1B): ~5%
cytotoxicity at 1.25 µM ([1]; Homo sapiens, NCI-H1975, 68 h, read-out: cell viability decrease compared to the control group, H1975, Osimertinib 1.25 μM alone, 68 hours, FIG. 1A): ~19%
cytotoxicity at 2.5 µM (H1975/OR; Homo sapiens, NCI-H1975, 68 h, read-out: cell viability decrease compared to the control group): ~7%
cytotoxicity at 5 µM ([2]; NCI-H820, 48 h, read-out: cell viability decrease compared to the control group): ~28%
cytotoxicity at 6 µM ([2]; NCI-H820, 72 h, read-out: cell viability decrease compared to the control group): ~15%
cytotoxicity at 4 µM ([3]; PC9-OR, read-out: cell viability decrease compared to the control group): ~10%
growth of the tumor compared to the PBS group (H1975 cell line; Osimertinib 5 mpk orally daily, before resistance, P<0.001): significantly suppressed
weight loss or death of animals during the experiment (H1975 cell line; all groups): No weight loss or death

COc1ccc(C(=O)N[C@@H](C)C(=O)N[C@@H](CCC(N)=O)C(=O)N[C@H](C(=O)NCC(=O)N[C@H](C(=O)NCC(=O)N[C@@H](CCCCN)C(=O)N[C@H](C(=O)O)[C@@H](C)O)[C@@H](C)O)[C@@H](C)O)cc1 ({Benzoyl(4-OMe)}-AQTGTGKT-OH)
cell viability decrease compared to the control group ([1]; 48 h, 10 μM): about 6%
decrease in cell viability compared to the control group ([4]; human, 48 h, 5 μM): about 4.6%

Nc1nc2[nH]cc(CCc3ccc(C(=O)N[C@@H](CCC(=O)O)C(=O)O)cc3)c2c(=O)[nH]1 [Alimta, Pemetrexed, reference compound]
cytotoxicity at 0.2 µM ([1]; Homo sapiens, NCI-H1975, 48 h, read-out: cell viability decrease compared to the control group, H1975, Alimta 0.2 μM alone, 48 hours, FIG. 1E): ~6%
cytotoxicity at 0.1 µM (H1975/OR; Homo sapiens, NCI-H1975, 72 h, read-out: cell viability decrease compared to the control group): ~8.3%
